Laboratory results taken from patent publication US20120213758A1, “BIARYL PDE4 INHIBITORS FOR TREATING PULMONARY AND CARDIOVASCULAR DISORDERS” (DeCODE Genetics enf, priority 2007, published 2012).
Where a name gives a salt, the structure may show the parent alone.

How the values were obtained:
hPDE4B = hPDE4B (Homo sapiens, UniProt Q07343); test: In-vitro real-time enzyme-coupled spectrophotometric assay for PDE4 enzymes (hPDE4B)
hPDE4D = hPDE4D (Homo sapiens, UniProt Q08499); test: In-vitro real-time enzyme-coupled spectrophotometric assay for PDE4 enzymes (hPDE4D)
[1] = test system: experimentally-induced interstitial cystitis; conditions: rats; frequency of urination decreased, urine volume per urination increased; cited from earlier work
[2] = test system: patients suffering from asthma and COPD; conditions: effect of cilomilast disappeared on long-term trial; cited from earlier work

Sequence of hPDE4D (Q08499 whole entry): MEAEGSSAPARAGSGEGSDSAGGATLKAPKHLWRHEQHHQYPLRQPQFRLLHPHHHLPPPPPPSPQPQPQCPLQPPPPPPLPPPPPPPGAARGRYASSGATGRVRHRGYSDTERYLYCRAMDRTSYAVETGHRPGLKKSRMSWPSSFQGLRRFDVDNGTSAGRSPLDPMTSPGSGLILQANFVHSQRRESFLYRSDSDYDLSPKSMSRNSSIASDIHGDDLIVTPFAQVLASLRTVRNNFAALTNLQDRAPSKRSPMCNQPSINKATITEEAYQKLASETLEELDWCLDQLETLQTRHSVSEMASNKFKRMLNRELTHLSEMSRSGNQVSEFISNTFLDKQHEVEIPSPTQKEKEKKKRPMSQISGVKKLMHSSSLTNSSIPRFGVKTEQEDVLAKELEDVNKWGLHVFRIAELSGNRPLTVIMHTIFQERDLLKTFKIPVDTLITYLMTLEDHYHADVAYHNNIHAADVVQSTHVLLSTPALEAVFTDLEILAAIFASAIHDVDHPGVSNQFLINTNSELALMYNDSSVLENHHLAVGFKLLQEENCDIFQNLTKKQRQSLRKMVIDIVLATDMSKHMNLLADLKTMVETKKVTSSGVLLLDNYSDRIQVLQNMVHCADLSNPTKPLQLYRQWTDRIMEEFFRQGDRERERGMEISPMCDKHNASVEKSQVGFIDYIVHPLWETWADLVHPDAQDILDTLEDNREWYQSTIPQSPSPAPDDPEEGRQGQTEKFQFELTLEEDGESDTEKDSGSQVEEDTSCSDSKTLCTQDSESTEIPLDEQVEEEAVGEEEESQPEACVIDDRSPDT
Sequence of hPDE4B (Q07343 whole entry): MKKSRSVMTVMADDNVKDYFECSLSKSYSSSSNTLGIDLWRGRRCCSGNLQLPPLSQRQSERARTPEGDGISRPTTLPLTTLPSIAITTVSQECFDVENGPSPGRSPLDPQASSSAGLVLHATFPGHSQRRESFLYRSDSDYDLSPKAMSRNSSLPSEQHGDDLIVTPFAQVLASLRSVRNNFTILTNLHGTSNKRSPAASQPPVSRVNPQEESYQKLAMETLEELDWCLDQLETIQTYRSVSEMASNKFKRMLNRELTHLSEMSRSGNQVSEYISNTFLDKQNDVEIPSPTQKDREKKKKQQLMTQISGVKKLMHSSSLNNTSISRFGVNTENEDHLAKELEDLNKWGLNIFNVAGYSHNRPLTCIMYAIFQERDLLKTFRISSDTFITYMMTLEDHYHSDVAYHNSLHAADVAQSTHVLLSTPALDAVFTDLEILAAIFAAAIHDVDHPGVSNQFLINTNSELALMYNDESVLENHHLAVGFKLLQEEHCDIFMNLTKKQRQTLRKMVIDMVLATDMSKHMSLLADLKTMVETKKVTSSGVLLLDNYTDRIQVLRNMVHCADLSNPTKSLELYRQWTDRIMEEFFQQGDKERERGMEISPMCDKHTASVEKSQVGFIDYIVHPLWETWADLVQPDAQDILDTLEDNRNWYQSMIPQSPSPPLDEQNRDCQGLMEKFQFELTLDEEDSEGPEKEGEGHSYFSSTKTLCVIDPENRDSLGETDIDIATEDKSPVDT

| IC50 (hPDE4B) [µM] | IC50 (hPDE4D) [µM] | SMILES | effect on experimentally-induced interstitial cystitis [1] | clinical effect in asthma and COPD [2] |
| --- | --- | --- | --- | --- |
| 5 to 20 | < 5 | COc1ccc(Cc2ccc(N3CCC3C(=O)O)nc2)cc1-c1cccc(Cl)c1 (stereo not shown) [Example A-067, 1-[5-(3′-chloro-6-methoxy-biphenyl-3-ylmethyl)-pyridin-2-yl]-azetidine-2-carboxylic acid acetate salt] | – | – |
| < 5 | < 5 | COc1ccc(Cc2ccc(N3CCC[C@H]3C(=O)O)nc2)cc1-c1cccc(Cl)c1 [Example A-068, (S)-1-[5-(3′-chloro-6-methoxy-biphenyl-3-ylmethyl)-pyridin-2-yl]-pyrrolidine-2-carboxylic acid] | – | – |
| 5 to 20 | < 5 | COc1ccc(Cc2ccc(N3CCCC(C(=O)O)C3)nc2)c(F)c1-c1cccc(Cl)c1 (stereo not shown) [Example A-070, 5′-(3′-Chloro-2-fluoro-6-methoxy-biphenyl-3-ylmethyl)-3,4,5,6-tetrahydro-2H-[1,2′]bipyridinyl-3-carboxylic acid] | – | – |
| < 5 | < 5 | COC(=O)c1ccc(Cc2ccc(OC)c(-c3cccc(Cl)c3)c2)cn1 [Example A-073, 5-(3′-chloro-6-methoxy-biphenyl-3-ylmethyl)-pyridine-2-carboxylic methyl ester] | – | – |
| < 5 | < 5 | COc1ccc(Cc2ccc(N(C)CC(=O)O)nc2)c(F)c1-c1cccc(Cl)c1 [Example A-074, {[5-(3′-chloro-2-fluoro-6-methoxy-biphenyl-3-ylmethyl)-pyridin-2-yl]-methyl-amino}-acetic acid] | – | – |
| < 5 | < 5 | COC(=O)c1ccc(Cc2ccc(OC(F)F)c(-c3cccc(Cl)c3)c2)cn1 [Example A-075, 5-(3′-Chloro-6-difluoromethoxy-biphenyl-3-ylmethyl)-pyridine-2-carboxylic acid methyl ester] | – | – |
| < 5 | < 5 | FC(F)Oc1ccc(Cc2ccc(-c3nnn[nH]3)nc2)cc1-c1cccc(Cl)c1 [Example A-076, 5-(3′-Chloro-6-difluoromethoxy-biphenyl-3-ylmethyl)-2-(1H-tetrazol-5-yl)-pyridine hydrochloride salt] | – | – |
| < 5 | < 5 | COc1ccc(Cc2ccc(F)cc2)[n+]([O-])c1-c1cccc([N+](=O)[O-])c1 [Example B-080, 6-(4-Fluoro-benzyl)-3-methoxy-2-(3-nitro-phenyl)-pyridine 1-oxide] | – | – |
| < 5 | < 5 | CCNC(=O)Nc1ccc(Cc2ccc(OC)c(-c3cccc(Cl)c3)c2F)c[n+]1O [Example B-081, 1-[5-(3′-Chloro-2-fluoro-6-methoxy-biphenyl-3-ylmethyl)-1-oxy-pyridin-2-yl]-3-ethyl-urea] | – | – |
| < 5 | < 5 | CCNC(=O)NCc1ccc(Cc2ccc(OC)c(-c3cccc(Cl)c3)c2F)c[n+]1[O-] [Example B-082, 1-[5-(3′-Chloro-2-fluoro-6-methoxy-biphenyl-3-ylmethyl)-1-oxy-pyridin-2-ylmethyl]-3-ethyl-urea] | – | – |
| < 5 | < 5 | COc1ccc(Cc2ccc(CN3CCNC3=O)[n+]([O-])c2)c(F)c1-c1cccc(Cl)c1 [Example B-083, 1-[5-(3′-Chloro-2-fluoro-6-methoxy-biphenyl-3-ylmethyl)-1-oxy-pyridin-2-ylmethyl]-imidazolidin-2-one] | – | – |
| – | – | CCc1ccc2c(-c3cccc(Cl)c3)nc(=O)n(CC)c2n1 [YM976] | ameliorate the effects of experimentally-induced interstitial cystitis in rats | – |
| – | – | COc1ccc([C@]2(C#N)CC[C@@H](C(=O)O)CC2)cc1OC1CCCC1 [cilomilast] | – | showed initially excellent results |
| – | – | O=C(Nc1c(Cl)cncc1Cl)c1ccc(OC(F)F)c(OCC2CC2)c1 [roflumilast] | – | showed initially excellent results |
